Assay results from publication PMC12366525, “Characterization of allosteric modulators that disrupt androgen receptor co-activator protein-protein interactions to alter transactivation–Drug leads for metastatic castration resistant prostate cancer” (SLAS discovery : advancing life sciences R & D, 2023).
pIC50: −log10 of the molar value.

Key:
[1] = biological target: T1, AR-LBD::TIF2-Box III-LXXLL-Peptide (Homo sapiens, UniProt P10275); assay: AR-LBD::TIF2-Box III-LXXLL-peptide AlphaScreen binding assay; details: DHT-induced TIF2 box 3 LXXLL-peptide binding to recombinant AR-LBD
T1 construct: The pET28a-AR-LBD (622–919) construct [78] was a gift; made in house
T1 sequence (P10275 622-919): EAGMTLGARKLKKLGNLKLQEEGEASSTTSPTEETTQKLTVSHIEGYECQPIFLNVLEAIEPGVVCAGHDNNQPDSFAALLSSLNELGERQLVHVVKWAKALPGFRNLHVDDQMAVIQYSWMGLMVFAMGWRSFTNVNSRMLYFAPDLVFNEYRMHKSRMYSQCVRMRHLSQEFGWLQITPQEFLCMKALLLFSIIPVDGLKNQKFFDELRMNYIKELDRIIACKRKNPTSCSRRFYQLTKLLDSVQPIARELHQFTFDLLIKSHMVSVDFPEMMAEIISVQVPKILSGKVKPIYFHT
Description: The pET28a-AR-LBD (622–919) construct was a gift from Dr. Fletterick and Dr. Nguyen of University of California San Francisco. Biotinylated (Biotin-HN-[…]-CONH2) and non-biotinylated TIF2-box-III (738–756) peptide (H2N-[…]-CONH2) were synthesized by the Peptide & Peptoid Synthesis Facility, at the University of Pittsburgh Health Sciences Core Research Facilities. ALPHAScreen streptavidin donor beads (SA-DB) and nickel chelate acceptor beads (Ni-AB) were purchased from Perkin Elmer (Waltham, MA). The assay was performed in 384-well white opaque plates (Greiner BioOne, #781080). […] 18 uL of the SA-DB bound biotinylated TIF2 peptide mixture was added to the assay plate before 5 μL of compounds were transferred into assay wells and 27 μL of the AlphaScreen donor and acceptor bead mixture was added to the plate. 32 wells containing 0.5% DMSO provided maximum controls and 32 wells containing a 500-fold excess of unlabeled TIF2-box-III (75 μM) were used as minimum controls. The combined bead-protein-peptide-compound mixture was incubated for 1 h at room temperature in the dark, and then the RLU’s were acquired at 520 nm after excitation at 680 nm on an Envision plate reader (Perkin Elmer, Waltham, MA) as described previously.

[2] = biological target: T2, AR-V7 (Homo sapiens, UniProt P10275); assay: UBE2C promoter driven luciferase reporter assay in PC3-AR-V7-GFP cells; format: cell-based; details: constitutive, 24 h; read-out: PC-3-ARV7-GFP UBE2C-Luc Reporter IC50
T2 construct: expressed in transfected cells; host or cells: PC3 cells stably expressing AR-V7-GFP
T2 sequence (P10275 1-644 isoform P10275-3): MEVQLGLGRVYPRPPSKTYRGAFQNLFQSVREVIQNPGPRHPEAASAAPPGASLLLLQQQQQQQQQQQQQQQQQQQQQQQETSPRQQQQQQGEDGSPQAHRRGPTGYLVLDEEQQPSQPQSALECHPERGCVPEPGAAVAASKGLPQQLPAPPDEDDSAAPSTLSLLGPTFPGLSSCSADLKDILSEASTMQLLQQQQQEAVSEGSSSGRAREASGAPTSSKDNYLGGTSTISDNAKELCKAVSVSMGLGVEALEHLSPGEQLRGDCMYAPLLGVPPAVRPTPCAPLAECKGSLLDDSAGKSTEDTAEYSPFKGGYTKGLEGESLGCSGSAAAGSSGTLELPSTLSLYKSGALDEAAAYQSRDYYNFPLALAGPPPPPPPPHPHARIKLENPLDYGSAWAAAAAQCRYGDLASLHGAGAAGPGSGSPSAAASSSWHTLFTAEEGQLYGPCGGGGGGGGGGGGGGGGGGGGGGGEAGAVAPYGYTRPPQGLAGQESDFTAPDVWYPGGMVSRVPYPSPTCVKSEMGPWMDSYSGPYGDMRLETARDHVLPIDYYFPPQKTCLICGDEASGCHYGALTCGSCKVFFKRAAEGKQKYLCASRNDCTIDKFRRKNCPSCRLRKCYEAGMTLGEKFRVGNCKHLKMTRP
Method: The pGL4.28-UBE2C 20bpX3 luciferase reporter plasmid was provided by Dr. Yan Dong from Tulane University. Fugene HD and the UBE2C-Luc plasmid (10 ng/well) were combined at a 3:1 (μL:μg) ratio, in Opti-MEM and incubated for 25 min at RT before being added to PC3-AR-V7-GFP cells that were suspended in RPMI 1640 (Gibco) media containing 1% L-glutamine (Invitrogen), and 10% fetal bovine serum (Gemini Bio-products). Bulk transfected PC3-AR-V7-GFP cells were seeded into white opaque 384-well assay plates (Greiner Bio-one, #781080) at a density of 3000 cell per well in a volume of 40 μL and incubated at 5% CO2, 37 °C, and 95% humidity for 24 h. After 24 h, 10 μL of compounds were transferred to assay wells and the plates were returned to the incubator for an additional 24 h before 25 μL of BrightGlo luciferase reagent (Promega) was added to the wells and the RLU’s were captured on a SpectraMax M5e plate reader (Molecular Devices LLC) as described previously.

Structure (SMILES) | pIC50 [1] | pIC50 [2]
Cc1ccccc1-c1cc(O)c2c(c1)CN(c1nc(C(N)=O)cs1)CCO2 [S1–1] | 4.67 | 4.46
Cc1ccccc1-c1cc(O)c2c(c1)CN(c1nccs1)CCO2 [S1–3] | 4.36 | 
Cc1nsc(NC(=O)N2CCC(Sc3ccccc3C)CC2)n1 [S2–6] | 4.19 | 4.84
Cc1c(-c2ccccc2F)[nH]c2ccc(CNC(=O)CCc3cn[nH]c3)cc12 [S3–11] | 4.05 | 4.68
Cc1c(-c2ccccc2F)[nH]c2ccc(CNC(=O)CCc3cnccn3)cc12 [S3–12] |  | 4.75
CC(=O)NCCC(=O)NCc1ccc2[nH]c(-c3ccccc3F)c(C)c2c1 [S3–13] | 4.04 | 
Cc1c(-c2ccccc2F)[nH]c2ccc(CNC(=O)c3ccc(CO)o3)cc12 [S3–14] | 4.55 | 4.34
Cc1c(-c2ccc(F)cc2)[nH]c2ccc(CNC(=O)c3ccc(CO)o3)cc12 [S3–15] | 4.71 | 4.73
